#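 Five concentrations, 48 hours, 96-well plates. At the GI50, growth is halved. The concentration for full growth arrest is given as TGI.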
# Columns and labels:
# Experiment in all cases: NCI anticancer screen, dose series, 48 h
# [1] = tested on: SNB-75 CNS
# [2] = tested on: HS 578T breast
# [3] = tested on: SK-MEL-5 melanoma
# [4] = tested on: HOP-92 NSCLC
# [5] = tested on: LOX IMVI melanoma
# [6] = tested on: HT29 colon
# [7] = tested on: COLO 205 colon
# [8] = tested on: SF-295 CNS
# [9] = tested on: BT-549 breast
# [10] = tested on: OVCAR-3 ovarian
SMILES,TGI [1],TGI [2],TGI [3],TGI [4],TGI [5],TGI [6],TGI [7],TGI [8],TGI [9],TGI [10],GI50 [2],GI50 [3],GI50 [4],GI50 [8],GI50 [5],GI50 [9],GI50 [10],GI50 [6]
CCOC(=O)/C=C/c1nc(C#N)c(N)o1,> 100 µM,> 100 µM,> 100 µM,> 100 µM,> 100 µM,> 100 µM,–,–,–,–,–,–,–,–,–,–,–,–
COc1ccc2ccc3oc(=O)c(C)cc3c2c1,> 100 µM,> 100 µM,> 100 µM,–,> 100 µM,> 100 µM,> 100 µM,> 100 µM,> 100 µM,> 100 µM,–,–,–,–,–,–,–,–
Clc1cccc(-c2sc(-c3cccs3)cc2Cc2cccs2)c1,> 10 µM,> 10 µM,> 10 µM,> 10 µM,> 10 µM,> 10 µM,> 10 µM,> 10 µM,> 10 µM,–,–,–,–,–,–,–,–,–
CC1CC(N2CCOCC2)=Nc2ccccc2N1C (stereo unspecified),89.7 µM,> 100 µM,> 100 µM,–,–,> 100 µM,> 100 µM,> 100 µM,> 100 µM,> 100 µM,–,–,–,–,–,–,–,–
Cc1c(N2CCOCC2)nc2ccc(Cl)cc2c1-c1ccccc1,> 100 µM,–,65.7 µM,> 100 µM,> 100 µM,> 100 µM,> 100 µM,> 100 µM,–,> 100 µM,–,–,–,–,–,–,–,–
O=C(c1ccco1)N(C(=O)N1CCCCC1)c1ccccc1,–,> 100 µM,> 100 µM,–,> 100 µM,> 100 µM,> 100 µM,–,> 100 µM,> 100 µM,–,–,–,–,–,–,–,–
COC(=O)CNC(=O)C(CSC(=O)OCC1c2ccccc2-c2ccccc21)NC(=O)CCC(NC(=O)OCC1c2ccccc2-c2ccccc21)C(=O)OC (stereo unspecified),–,> 100 µM,> 100 µM,30.8 µM,21.1 µM,–,78.9 µM,31.2 µM,31.3 µM,32 µM,–,–,–,–,–,–,–,–
CN(/N=C1\C(=O)Nc2ccccc21)c1ccccc1,> 100 µM,> 100 µM,> 100 µM,> 100 µM,> 100 µM,> 100 µM,–,> 100 µM,–,> 100 µM,–,–,–,–,–,–,–,–
O=C(COc1ccc(OCC(=O)N/N=C/c2ccc(-c3ccc(Cl)cc3Cl)o2)c(Cl)c1)N/N=C/c1ccc(-c2ccc(Cl)cc2Cl)o1,–,> 100 µM,> 100 µM,–,> 100 µM,> 100 µM,> 100 µM,> 100 µM,> 100 µM,> 100 µM,–,–,–,–,–,–,–,–
CCCCCCCCCCCCCCCCCCOc1ccccc1CC(=O)NCC[N+]1(C)CCOCC1,–,9.56 µM,16.1 µM,3.78 µM,42.4 µM,5.19 µM,–,49.2 µM,74 µM,34.2 µM,2.38 µM,3 µM,1.03 µM,4.99 µM,3.51 µM,3.57 µM,4.43 µM,2.05 µM
COC(=O)[C@]1(C)CCC[C@@]2(C)C1CC[C@]13C=C(C(C)C)[C@H](CC21)CC3(Cl)C#N (stereo partly specified),> 100 µM,> 100 µM,> 100 µM,> 100 µM,–,> 100 µM,> 100 µM,> 100 µM,86 µM,> 100 µM,–,–,–,–,–,–,–,–

# — PubChem BioAssay (NCI)
